According to patent publication US20090197947A1, “MEDICAMENTS AND METHODS FOR LOWERING PLASMA LIPID LEVELS AND SCREENING DRUGS” (The Research Foundation of State University of New York, priority 2008, published 2009):

Key:
[1] = tested on: AC29 cells that do not express MTP but stably express ACAT1 or ACAT2; assay: Cellular cholesteryl ester synthesis in AC29 cells that do not express MTP; assay type: cell-based; conditions: AC29 cells stably expressing ACAT1 or ACAT2
Protocol: Next, the effect of these inhibitors on cellular cholesteryl ester synthesis was examined. […] In these cells, MTP inhibitor BMS 197636 had no effect on cellular cholesteryl ester synthesis (FIG. 9, J and K). However, incubation of these cells with ACAT inhibitor 148817 reduced radio-labeled cholesteryl esters by 83-87% (FIG. 9, J, K).

Caco-2 cells = Caco-2 cells treated with MTP and ACAT antagonists, alone or in combination; assay type: cell-based; set-up: inhibition of cellular esterification of [3H] cholesterol: dose or concentration left out as unconfirmed
Protocol: Thus, it was hypothesized that MTP (BMS 197636) and ACAT (1 488 17) antagonists would inhibit cellular esterification by independent mechanisms and their effect would be additive. To test this hypothesis, Caco-2 cells were treated with different amounts of these inhibitors, alone or in combination, and the inhibition was compared with cells that were not exposed to any inhibitors (FIG. 9, L-N). Increasing concentrations of BMS 197636 decreased apoB secretion (FIG. 9, L). In contrast, ACAT inhibitor had no effect on apoB secretion. […] ApoAI secretion was resistant to both the inhibitors (FIG. 9, M). […] These inhibitors in combination reduced cholesteryl ester synthesis by 45 +/−4% (FIG. 9, N). Thus, MTP and ACAT act in tandem and facilitate cellular cholesteryl esterification.

[2] = Effect of efflux enhancer and cholesterol biosynthesis inhibitor on hepatic mRNA, MTP activity and lipid levels in PBS and pIpC injected animals; assay type: in vivo; conditions: liver of drug administered pIpC injected mice
Source text: In this Example, total RNA was isolated from the liver of drug administered PBS and pIpC injected mice and used for quantitative RT-PCR of HMG-CoA reductase (FIG. 5, Panel A), ABCA1 (FIG. 5, Panel B), MTP (FIG. 5, Panel C) as well as ARPp0 mRNA. The ratio of candidate gene to ARPp0 in one PBS injected mice was used for normalization. Liver tissues were also used to measure MTP activity (FIG. 5, Panel D). In addition, triglyceride (FIG. 5, Panel E), total (FIG. 5, Panel F), Free (FIG. 5, Panel G) and Esterified (FIG. 5, Panel H) cholesterol levels were measured. (*, p<0.05, **, p<0.01, ***, p<0.001.)

[3] = Effect of efflux enhancer and cholesterol biosynthesis inhibitor on plasma lipids and liver function enzymes in PBS and pIpC injected animals; assay type: in vivo, mice; conditions: 50 mg/Kg oral gavage every day for 2 weeks; for plasma cholesterol levels / plasma triglyceride levels: MTP gene deleted (pIpC injected) mice
Source text: In this Example, blood was collected from tail vein of animals on day 1 of the experiment and used to measure plasma lipid and liver function enzyme levels (Day 1, “Control”). Conditional MTP deletion was achieved by injecting pIpC three times in […] mice on alternate days. Control group mice (n=2) received either PBS (open bars) or pIpC (closed bars) injections. […] On day 8, blood was again collected to measure changes in plasma lipid and liver function enzyme levels. Mice were sacrificed on day 16 and plasma samples were then assayed for total cholesterol (A), triglyceride (B), ALT (C) and AST (D) levels. Each measurement was performed in triplicate. The asterisks show statistically significant differences between PBS and pIpC injected mice. (*, p<0.05, **, p<0.01, ***, p<0.001.)

CCCNC(=O)C1(CCCCN2CCC(N3Cc4ccccc4C3=O)CC2)c2ccccc2-c2ccccc21 [BMS 197636]
cellular cholesteryl ester synthesis [1]: no effect
ApoAI secretion (Caco-2 cells): resistant
apoB secretion (Caco-2 cells; increasing concentrations, inhibitor alone): decreased
inhibition of cellular esterification of [3H] cholesterol (Caco-2 cells; individually): 25 +/−2%

CCCCCCCCCCCCCCCC(=O)O[C@H]1CC[C@@]2(C)C(=CC[C@H]3[C@@H]4CC[C@H]([C@H](C)CCCC(C)C)[C@@]4(C)CC[C@@H]32)C1 [cholesteryl palmitate]
concentration up to which microsomes are enriched with cholesterol (saturation thereafter) (liver microsomes; liver microsomes incubated 30 min, centrifuged): approximately 1.25 μM
inhibition of cholesteryl ester synthesis (liver microsomes; liver microsomes, 0.5 μM cholesteryl palmitate): 32%

O=S(=O)(c1ccccc1)N(CC(F)(F)F)c1ccc(C(O)(C(F)(F)F)C(F)(F)F)cc1 [T0901317]
increases in hepatic free cholesterol levels in MTP gene deleted animals [2]: reduced
plasma cholesterol levels [3]: not significantly altered
plasma triglyceride levels [3]: not significantly altered

CC[C@H](C)C(=O)O[C@H]1C[C@@H](C)C=C2C=C[C@H](C)[C@H](CC[C@@H]3C[C@@H](O)CC(=O)O3)[C@H]21 [lovastatin, Lovastatin]
increases in hepatic free cholesterol levels in MTP gene deleted animals [2]: reduced
plasma cholesterol levels [3]: not significantly altered
plasma triglyceride levels [3]: not significantly altered
increase in plasma ALT levels due to MTP gene deletion ([3]; pIpC injected mice): not seen
increase in plasma AST levels due to MTP gene deletion ([3]; pIpC injected mice): not seen
